In article PMC11853949 (European journal of medicinal chemistry, 2025):

Tested on: Vγ9Vδ2 T cells exposed to compound-loaded K562 cells
Experiment: Vγ9Vδ2 T cell interferon γ ELISA with compound-loaded K562 cells
Format: cell-based, human
Details: versus aryl amidate range 110-230 nM

C/C(=C\CCP(=O)(OCOC(=O)c1cn(-c2ccc(F)cc2)nn1)Oc1ccccc1)CO (stereo not shown) [Compound 25b, (E)-(((5-Hydroxy-4-methylpent-3-en-1-yl)(phenoxy)phosphoryl)oxy)methyl-1-(4-fluorophenyl)-1H-1,2,3-triazole-4-carboxylate]
fold more active than aryl amidates (1 hour cytokine EC50): more than 100 fold
